Assay results reported in paper PMC7247329, “Kaempferol and Its Glycoside, Kaempferol 7-O-rhamnoside, Inhibit PD-1/PD-L1 Interaction In Vitro” (International Journal of Molecular Sciences, 2020).
Several values for one entry are separate records, joined by “and”; a condition that tells them apart may be missing. Equal entries are not always repeated.

How the values were obtained:
[1] = system: hPD-L1; design: method as in PMID 31455818, PMID 31374878; conditions: biochemical results; cited from earlier work
[2] = system: PD-1/PD-L1 interaction in co-cultured PD-1 Jurkat T cells and PD-L1/aAPC CHO-K1 cells; assay: Cell-based PD-1/PD-L1 blockade bioassay (NFAT-luciferase reporter, co-culture); design: species or system human; conditions: co-culture 24 h; for EC50: Homo sapiens
Text: When co-cultured with PD-1 Jurkat T cells and PD-L1/aAPC CHO-K1 cells, TCR activation is restrained by PD-1/PD-L1 ligation and the NFAT-luciferase reporter activity. When PD-1/PD-L1 interaction is disrupted, TCR activation induces luminescence via activation of the NFAT pathway in co-culture systems. Therefore, the effects of KO and its glycosides on PD-1/PD-L1 interaction in the cell model system were examined by measuring NFAT-luciferase reporter activity after co-culture with PD-1/NFAT Reporter-Jurkat cells and PD-L1/aAPC CHO-K1 cells. […] The results described above indicate that KO and its glycosides are involved with the PD-1/PD-L1 blockade, as confirmed by the biochemical assay.
A PD-1/PD-L1 Blockade Bioassay kit was used according to the supplier’s instructions (Promega, Fitchburg, WI, USA) with a slight modification. Briefly, the PD-L1 aAPC/CHO-K1 cells were seeded in 96-well plates at a density of 5 × 10^4/well in the complete culture medium. A few hours later, the medium was removed, and 1 × 10^5 PD-1 Jurkat cells were added to each well with test inhibitors. The cells were cultured for 24 h at 37 °C and then lysed using the Bio-Glo™ Luciferase Assay System (Promega, Madison, WI, USA). After incubation for 15 min, luminescence was quantified using a GloMax® Explorer Multimode Microplate Reader (Promega). Data are presented as fold to untreated control.

[3] = system: PD-1 Jurkat cells; assay: Cell Counting Kit-8 (CCK) cell viability assay; type: cell-based, human; conditions: 24 h
[4] = system: PD-L1/aAPC CHO-K1 cells; assay: Cell Counting Kit-8 (CCK) cell viability assay; type: cell-based; conditions: 24 h
[5] = reported; no reference given; cited from earlier work
[6] = biological target: T1, PD-1/PD-L1 protein–protein interaction (Homo sapiens, UniProt Q9NZQ7); assay: PD-1/PD-L1 competitive ELISA; type: binding
T1 construct: purchased BPS Bioscience #71104 (hPD-L1); #71109 (biotinylated hPD-1); kit #72005
Procedure: To elucidate the effect of test inhibitors on PD-1/PD-L1 protein–protein interaction, PD-1/PD-L1 Competitive ELISA Screening Kits (BPS Bioscience Inc., San Diego, CA, USA) were used according to the supplier’s instructions [27]. Briefly, recombinant hPD-L1 (BPS Bioscience, #71104) was coated overnight at 1 μg/mL in phosphate-buffered saline (PBS) in 96-well plates (Corning Inc., New York, NY, USA). Plates were washed with PBS containing 0.1% Tween (PBS-T), blocked for 1 h at room temperature with PBS containing 2% (w/v) BSA, and then washed again. Fifty microliters of 0.5 μg/mL biotinylated hPD-1 (BPS Bioscience, #71109) was added to the wells, and the plates were incubated for 2 h at room temperature. After three washes in PBS-T, 50 μL of 0.2 μg/mL HRP-conjugated streptavidin was added to each well, and the plates were incubated for 1h. After incubation, plates were washed three times in 0.1% PBS-T, and relative chemiluminescence was measured on a SpectraMax L Luminometer from Molecular Devices (San Jose, CA, USA).

[7] = system: PD-1 level in co-cultured PD-1 Jurkat cells and PD-L1 CHO-K1 cells; assay: Western blot of PD-1 expression in co-cultured cells; type: cell-based, human; conditions: 24 h
[8] = biological target: T2, biotinylated human PD-L1 (Homo sapiens, UniProt Q9NZQ7); assay: Biolayer interferometry (BLItz) kinetic analysis; type: binding
T2 construct: purchased Sino Biological
Procedure: (§1) To measure the binding affinities and kinetic constants of test inhibitors, BLI analysis was conducted according to a previous report, with slight modifications. Briefly, BLI on a BLItz system is a label-free analytic technology for biomolecular interactions by measuring interference patterns of light reflected from two surfaces. After pre-equilibration of the SA BLI sensor (Pall FortéBio Corp., Menlo Park, CA, USA) in PBS buffer for 10 min, biotinylated human PD-1 (BioVision, Milpitas, CA, USA) and PD-L1 (Sino biological, Beijing, China) were fully loaded onto the sensors by immersion in 4 μL of PD-1 and PD-L1 solution and then dissolved in PBS buffer to 50 μg/mL. Test inhibitors for the kinetic analysis were prepared by 100-fold dilution of stock solution and dissolved in 100% DMSO (0, 0.25, 0.5, and 0.75 mM) in PBS buffer. Binding kinetics were measured as follows: step 1, initial baseline in PBS buffer containing 1% DMSO for 15 s; step 2, association in 4 μL of test inhibitors solution for 20 s; and step 3, dissociation in PBS buffer containing 1% DMSO for 20 s. The kinetic constants were calculated using the BLItz Pro software by fitting the association and dissociation data to a 1:1 model. The equilibrium dissociation constant, KD, was calculated as the dissociation constant (kd)/association constant (ka).

[9] = biological target: T3, biotinylated human PD-1 (Homo sapiens, UniProt Q15116); assay: Biolayer interferometry (BLItz) kinetic analysis; type: binding
T3 construct: purchased BioVision
Procedure: as §1

[10] = biological target: recombinant PD-1 (hPD-1) (Homo sapiens, UniProt Q15116); assay: Surface plasmon resonance (Biacore T200); type: binding; conditions: SPR
Chain of recombinant PD-1 (hPD-1) (Q15116 25-170 limits assumed): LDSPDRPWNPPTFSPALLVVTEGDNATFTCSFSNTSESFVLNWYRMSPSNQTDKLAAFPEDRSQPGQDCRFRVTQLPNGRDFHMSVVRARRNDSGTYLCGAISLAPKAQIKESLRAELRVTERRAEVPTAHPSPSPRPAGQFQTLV

T3 sequence (Q15116 25-288): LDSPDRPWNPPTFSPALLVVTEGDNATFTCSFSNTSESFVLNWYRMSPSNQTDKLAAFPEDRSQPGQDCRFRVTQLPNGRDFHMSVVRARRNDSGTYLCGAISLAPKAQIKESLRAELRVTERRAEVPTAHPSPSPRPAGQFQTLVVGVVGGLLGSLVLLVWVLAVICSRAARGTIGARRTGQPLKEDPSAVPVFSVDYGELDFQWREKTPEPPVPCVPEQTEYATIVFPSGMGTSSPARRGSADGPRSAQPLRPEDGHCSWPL
T2 sequence (Q9NZQ7 19-290): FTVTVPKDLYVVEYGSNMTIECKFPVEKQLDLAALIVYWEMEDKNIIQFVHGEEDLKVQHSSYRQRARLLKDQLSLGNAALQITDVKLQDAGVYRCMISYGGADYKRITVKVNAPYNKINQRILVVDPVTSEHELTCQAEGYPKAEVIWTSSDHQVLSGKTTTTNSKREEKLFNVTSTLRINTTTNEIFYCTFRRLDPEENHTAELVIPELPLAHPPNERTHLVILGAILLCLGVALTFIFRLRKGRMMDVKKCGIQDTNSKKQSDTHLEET
T1 sequence (Q9NZQ7 19-239 limits assumed): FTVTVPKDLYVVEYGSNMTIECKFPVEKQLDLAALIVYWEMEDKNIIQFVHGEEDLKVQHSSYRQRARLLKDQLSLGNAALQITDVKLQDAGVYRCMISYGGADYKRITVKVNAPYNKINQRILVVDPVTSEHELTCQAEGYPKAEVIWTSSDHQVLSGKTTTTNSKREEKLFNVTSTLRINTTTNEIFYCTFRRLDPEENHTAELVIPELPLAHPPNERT

SMILES	Direct targeting of hPD-L1 [1]	Effect on PD-1/PD-L1 interaction in cell model ([2]; indicated concentration)	Cytotoxic concentration (not cytotoxic up to) [3] [µM]	Cytotoxic concentration (not cytotoxic up to) [4] [µM]	EC50 [2] [µM]	Solubility in water [5]	IC50 ([6]; PD-L1-coated plate, biotinylated PD-1, read-out: IC50, PD-1/PD-L1 blocking effect) [µM]	Effect on PD-1 level [7]	kd ([8]; PD-L1) [s⁻¹]	kon ([8]; PD-L1, read-out: ka) [M⁻¹ s⁻¹]	Kd ([8]; PD-L1 immobilized on SA sensor, PBS pH 7.3 with 1% DMSO, 1:1 model) [µM]	kd ([9]; PD-1) [s⁻¹]	kon ([9]; PD-1, read-out: ka) [M⁻¹ s⁻¹]	Kd ([9]; PD-1 immobilized on SA sensor, PBS pH 7.3 with 1% DMSO, 1:1 model) [µM]	Inhibitory effect on PD-1/PD-L1 binding [6]	Kd ([10]; Biacore T200, recombinant PD-1) [µM]	Rmax ([10]; Biacore software)
C[C@@H](O)[C@H](NC(=O)N[C@@H](CC(N)=O)c1nc([C@@H](N)CO)no1)C(=O)O [CA-170]	did not target hPD-L1 directly																
C[C@@H]1O[C@@H](Oc2cc(O)c3c(=O)c(O[C@@H]4O[C@@H](C)[C@H](O)[C@@H](O)[C@H]4O)c(-c4ccc(O)cc4)oc3c2)[C@H](O)[C@H](O)[C@H]1O [KI, kaempferol-3,7-dirhamnoside]		no effect at the indicated concentration	> 100	> 100													
O=c1c(O)c(-c2ccc(O)cc2)oc2cc(O)cc(O)c12 [KO, kaempferol]			> 100	> 100	16.5	440 mg/L and 1.537 mM	7.8	not upregulation of PD-1 level									
C[C@@H]1O[C@@H](Oc2cc(O)c3c(=O)c(O)c(-c4ccc(O)cc4)oc3c2)[C@H](O)[C@H](O)[C@H]1O [KR, kaempferol 7-O-rhamnoside]			> 100	> 100	15.4	1.16 mg/mL and 2.68 mM		not upregulation of PD-1 level	0.00773	392	19.7	0.00979	315	31.1	revealed inhibitory effects on PD-1/PD-L1 binding but did not show dose-dependent activities	156	24.92
